Read-outs that look alike come from different tables or passages of the source.
System: influenza virus (strain A/Puerto Rico/8/34/H1N1 depicted PR8)
Settings: n=2

With `CS(=O)(=O)c1ccc(NC(=O)c2cc(Cl)ccc2O)c(Cl)c1` [TVB-1338] the relative infection (0.1 µM) was 0.81, the relative infection (0.3 µM) was 0.81 and the relative infection (0.9 µM) was 0.78. The relative infection (2.8 µM) was 0.82 and the relative infection (8.3 µM) was 0.78.

`O=C(Nc1ccc([N+](=O)[O-])cc1Cl)c1ccccc1O` [TVB-1332] showed a relative infection (0.1 µM) of 1.04, a relative infection (0.3 µM) of 1.06 and a relative infection (0.9 µM) of 1.04. It also gave a relative infection (8.3 µM) of 0.02 and a relative infection (25.0 µM) of 0.00.

With `O=C(Nc1ccc([N+](=O)[O-])cc1Cl)c1cc(Cl)cc(Cl)c1O` [TVB-1326] the relative infection (0.1 µM) was 1.02, the relative infection (0.3 µM) was 0.94 and the relative infection (0.9 µM) was 0.90. The relative infection (2.8 µM) was 0.78, the relative infection (8.3 µM) was 0.68 and the relative infection (25.0 µM) was 0.01.

In the case of `O=C(Nc1ccc([N+](=O)[O-])cc1Cl)c1cc(Cl)ccc1OCCOc1ccccc1` [TVB-1329], the relative infection (0.1 µM) was 0.99, the relative infection (0.3 µM) was 0.98 and the relative infection (0.9 µM) was 1.04. For the same compound, the relative infection (2.8 µM) was 0.99, the relative infection (8.3 µM) was 0.69 and the relative infection (25.0 µM) was 0.04.
